{"source": "patent US20190083420A1", "about": "“METHODS OF USING (2R, 6R)-HYDROXYN[…] (2S, 6S)-HYDROXYN[…] THE TREATMENT OF DEPRESSION, ANXIETY, ANHEDONIA, FATIGUE, SUICIDAL IDEATION, AND POST TRAUMATIC STRESS DISORDERS” (The Uinited States of America, as represented by the …, priority 2016, published 2019)", "key": {"[1]": {"tested_on": "mice", "test": "Drug discrimination in ketamine-trained mice", "format": "in vivo", "conditions": "for response rate of overall lever pressing per sec: drug discrimination paradigm", "procedure": "Mice were food restricted until they reached 85% of their initial body weight and were maintained at 85% throughout the duration of the experiment Animals were trained to lever press for food (20 mg sucrose pellets; TestDiet, St. Luis, Mo., USA) in standard two lever-operant conditioning chambers (Coulbourn Instruments, Whitehall, Pa., USA), under a fixed-ratio 5 of reinforcement (FR5) in daily 30-min sessions. When stable responding was succeeded over 3 consecutive sessions (average of 40 training sessions), mice were trained to discriminate ketamine (10 mg/kg) from saline (7.5 ml/kg) under a double alternation schedule (e.g., ketamine, ketamine, saline, saline). The subjects received either ketamine (10 mg/kg; i.p.) or saline (7.5 ml/kg) 15 minutes prior to the start of the 30-minute session. […] Drug discrimination test sessions were conducted when mice reached the following criteria: (1) first FR5 completed on the correct lever, and (2)≥85% correct lever responding over the entire session. During the test sessions mice were administered with saline (7.5 ml/kg), ketamine (10 mg/kg), phencyclidine (PCP; 3 mg/kg) or (2R,6R)-HNK (10 and 50 mg/kg). […] Recording of responses and pellet delivery were controlled and calculated by an automated computer system (Graphic State v3.1; Coulbourn Instruments, Whitehall, Pa., USA)."}, "[2]": {"tested_on": "Male C57BL/6J mice", "test": "Chronic social defeat stress and social interaction/avoidance test", "format": "in vivo", "conditions": "for locomotor activity and total compartmental crosses in the social interaction test: following chronic social defeat stress; for reversal of social interaction deficits / social avoidance induced by chronic social defeat stress: single i.p. injection, re-test 24 hours following treatment", "procedure": "Male C57BL/6J mice underwent a 10-day chronic social defeat stress paradigm. Briefly, experimental mice were introduced to the home cage (43 cm length×11 cm width×20 cm height) of a resident aggressive retired CD-1 breeder, prescreened for aggressive behaviors, for 10 min. Following this physical attack phase, mice were transferred and housed in the opposite side of the resident's cage divided by a Plexiglas perforated divider, in order to maintain continuous sensory contact. This process was repeated for 10 days. Experimental mice were introduced to a novel aggressive CD-1 mouse each day. On day 11, test mice were screened for susceptibility in a social interaction/avoidance choice test. The social interaction apparatus consisted of a rectangular three-chambered box (mouse conditioned-place preference chamber; Stoelting Co., Wood Dale, Ill., USA), see FIG. 7b) comprised of two equal sized end-chambers and a smaller central chamber. The social interaction/avoidance choice test consisted of two 5-min phases. During the habituation phase, mice explored the empty apparatus. During the test phase, two small wire cages (Galaxy Cup, Spectrum Diversified Designs, Inc., Streetsboro, Ohio, USA), one containing a “stranger” CD-1 mouse and the other one empty, were placed in the far corners of each chamber. The time spent interacting (nose within close proximity of the cage) with the “stranger” mouse versus the empty cage was analysed using TopScan video tracking software (CleverSys, Reston, Va.). Locomotor activity (total distance moved over 5 min) and number of total crosses into and out of the central chamber were also measured. The social interaction ratio was calculated by dividing the time spent interacting with the “stranger” by the time spent with the empty cage. Mice having a social interaction ratio higher than 1.0 were considered resilient and mice with a social interaction ratio lower than 1.0 were considered susceptible. On day 13 resilient and susceptible mice received an i.p. injection of either saline, (R,S)-KET (20 mg/kg; chosen based upon dose previously effective in C57BL/6J mice^31), MK-801 (0.1 mg/kg) or (2R,6R)-HNK (20 mg/kg). Mice were re-tested for social interaction/avoidance on […] (24 hours following treatment)."}, "[3]": {"tested_on": "mice", "test": "Quantitative EEG, cortical oscillation power", "format": "in vivo", "conditions": "for cortical gamma power: acute; for cortical gamma power / cortical alpha, beta, delta and theta oscillations: after i.p. 10 mg/kg", "procedure": "EEG experiments were performed according to Raver et al., (Neuropsychopharmacology, 38, 2338-2347 (2013)) with minor modifications. Mice were anesthetized with isoflurane and kept under anesthesia throughout the surgery. An F20-EET radio-telemetric transmitter (Data Sciences International, Minneapolis, Minn.) was implanted subcutaneously and its leads implanted over the dura above the frontal cortex (1.7 mm anterior to bregma) and the cerebellum (6.4 mm posterior to bregma). Animals recovered from surgery for 7 days before recordings.\nMice were singly housed and acclimated to the behavioral room for 24 hours prior to EEG recordings. EEGs were recorded using the Dataquest A.R.T. acquisition system (Data Sciences International) with frontal EEG recordings referenced to the cerebellum. Baseline EEG (10 min) recordings were followed by an i.p. injection of saline, ketamine (10 mg/kg) or (2R,6R)-HNK (10 mg/kg) and 40 min of post-injection recordings.\nECoGs were analyzed using custom-written MATLAB scripts (Version 2012a, Mathworks, Mass.) and the mtspecgramc routine in the Chronux Toolbox (http://chronux.org; Mitra and Bokil, 2008). Oscillation power in each bandwidth (δ=1-3 Hz; θ=4-7 Hz; α=8-12 Hz; β=13-29 Hz; γ=30-80 Hz) was computed in 10 min bins from spectrograms for each animal."}, "[4]": {"test": "Tissue distribution of ketamine and metabolites (plasma and brain levels)", "conditions": "brain", "procedure": "Mice were euthanized by a 30-sec exposure to 3% isoflurane and decapitated at 10, 30, 60, 240 or 480 minutes following drug administration. Trunk blood was collected in EDTA-containing tubes and centrifuged at 8000 rpm for 6 min (4° C.). Plasma was collected and stored at −80° C. until analysis. Whole brains were simultaneously collected, rinsed with phosphate-buffered saline, immediately frozen in dry ice and stored at −80° C. until analysis.\nThe concentrations of ketamine and its metabolites in plasma and brain tissue were determined by achiral liquid chromatography-tandem mass spectrometry. For plasma samples, the calibration standards for (R,S)-ketamine, (R,S)-norketamine, (2R,6R;2S,6S)-HNK and (R,S)-DHNK ranged from 10,000 ng/ml to 19 ng/ml. The quantification of (R,S)-ketamine, (R,S)-norketamine, (R,S)-DHNK, and the HNK stereoisomers was accomplished by calculating area ratios using D4-ketamine (10 μl of 10 μg/ml solution) as the internal standard. Whole brains were suspended in 990 μl of water:methanol (3:2, v/v), D4-ketamine (10 μl of 10 μg/ml) added and the resulting mixture homogenized on ice with a polytron homogenizer and centrifuged at 21,000×g for 30 min. The supernatant was collected and processed using 1 ml Oasis HLB solid phase extraction cartridges (Waters Corp., Waltham, Mass.). The cartridges were preconditioned with 1 ml of methanol, followed by 1 ml of water and then 1 ml ammonium acetate [10 mM, pH 9.5]. The supernatants were added to the cartridges, followed by 1 ml of water and the compounds were eluted with 1 ml of methanol. The eluent was transferred to an autosampler vial for analysis. QC standards for the analysis of (R,S)-ketamine, (R,S)-norketamine, (R,S)-DHNK and (2R,6R;2S,6S)-HNK ranged from 10,000 ng/ml to 19 ng/ml, and quantification was accomplished using D4-(R,S)-ketamine as the internal standard. QC standards were prepared daily by adding 10 μl of the appropriate standard solution and 10 μl of internal standard solution (100 ng/ml) to methanol."}}, "note": "Entries after “also recorded” stand apart in the source; their conditions may differ."}
{"molecule": "N[C@@]1(c2ccccc2Cl)CCC[C@@H](O)C1=O", "note": "[(2R,6R)-HNK, (2R,6R)-2-amino-2-(2-chlorophenyl)-6-hydroxycyclohexanone]", "values": [{"measurement": "response rate of overall lever pressing per sec", "setting": "[1]", "value": "not changed"}, {"measurement": "ketamine-associated discriminative stimulus", "setting": "[1]; mice trained to discriminate ketamine (10 mg/kg) from saline", "value": "did not induce; also recorded: did not produce ketamine-related discrimination responses; also recorded: did not produce discriminative stimulus behaviors"}, {"measurement": "locomotor activity and total compartmental crosses in the social interaction test", "setting": "[2]", "value": "not associated with changes"}, {"measurement": "reversal of social interaction deficits / social avoidance induced by chronic social defeat stress", "setting": "[2]", "value": "reversed social interaction deficits"}, {"measurement": "cortical gamma power", "setting": "[3]; 10 mg/kg", "value": "acutely increases cortical gamma power"}, {"measurement": "cortical alpha, beta, delta and theta oscillations", "setting": "[3]; 10 mg/kg", "value": "without altering alpha, beta, delta or theta oscillations; also recorded: Neither (R,S)-KET, nor (2R,6R)-HNK altered"}, {"measurement": "brain hydroxynorketamine levels after administration of (2S,6S)-HNK versus (2R,6R)-HNK", "setting": "[4]", "value": "do not result from higher brain levels"}]}
{"molecule": "CNC1(c2ccccc2Cl)CCCCC1=O", "note": "(racemic) [ketamine, (R,S)-ketamine, reference compound]", "values": [{"measurement": "response rate of overall lever pressing per sec", "setting": "[1]", "value": "not changed"}, {"measurement": "locomotor activity and total compartmental crosses in the social interaction test", "setting": "[2]", "value": "without affecting"}, {"measurement": "reversal of social interaction deficits / social avoidance induced by chronic social defeat stress", "setting": "[2]", "value": "reversed social defeat stress-induced social avoidance behaviors"}, {"measurement": "cortical gamma power", "setting": "[3]; 10 mg/kg", "value": "acutely increases cortical gamma power"}, {"measurement": "cortical alpha, beta, delta and theta oscillations", "setting": "[3]", "value": "Neither (R,S)-KET, nor (2R,6R)-HNK altered"}, {"measurement": "locomotor home-cage activity during EEG recording", "setting": "[3]; mouse, in vivo", "value": "increased locomotor home-cage activity"}, {"measurement": "brain levels following ketamine administration, female mice compared to males", "setting": "[4]", "value": "equivalent levels"}]}
